The values that follow come from patent US12398154B2, “Azaquinazoline pan-KRas inhibitors” (Mirati Therapeutics, Inc., priority 2020, dated 2025).

The target in one experiment is T1, KRas G13D (Homo sapiens, UniProt P01116, G13D).
T1 construct: Biotinylated KRas (corresponding to amino acids 1-169, produced at Accelegan Inc.); biotin (biotinylated); purchased Accelegan Inc
As to the kind of experiment: KRas binding assay (TR-FRET displacement). A general note: In TR-FRET formats the signal depends on donor and acceptor labels being close together.

Another experiment addresses KRas G12D (Homo sapiens, UniProt P01116, G12D). As to the kind of experiment: biochemical.
For a further experiment, the target named is KRas G12V (Homo sapiens, UniProt P01116, G12V). The experiment is described as follows: biochemical.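 Note: KRas binding measured by TR-FRET displacement at room temperature, IC50 fitted from percent of control values.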
KRas G12V, sequence (P01116 1-169 isoform P01116-2 G12V): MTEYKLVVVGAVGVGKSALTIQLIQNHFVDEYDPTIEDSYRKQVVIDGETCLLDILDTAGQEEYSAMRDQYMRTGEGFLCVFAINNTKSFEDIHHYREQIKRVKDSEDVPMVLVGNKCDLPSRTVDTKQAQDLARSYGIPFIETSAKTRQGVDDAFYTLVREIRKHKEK
The target of the next experiment is KRas G12A (Homo sapiens, UniProt P01116, G12A). As to the kind of experiment: biochemical.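 Note: binding to KRas measured by TR-FRET displacement after one hour at room temperature, IC50 from a four-parameter fit of percent-of-control values.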
KRas G12A, sequence (P01116 1-169 isoform P01116-2 G12A): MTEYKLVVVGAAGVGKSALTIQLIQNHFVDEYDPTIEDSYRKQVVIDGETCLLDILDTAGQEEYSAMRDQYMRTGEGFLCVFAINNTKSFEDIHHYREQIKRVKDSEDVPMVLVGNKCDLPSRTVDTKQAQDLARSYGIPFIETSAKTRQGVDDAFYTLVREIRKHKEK
The target of another experiment is KRas G12R (Homo sapiens, UniProt P01116, G12R). The experiment is described as follows: biochemical.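 Note: TR-FRET displacement assay of compound binding to KRas, read after one hour at room temperature, potency from a four-parameter fit of percent-of-control values.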
KRas G12R, sequence (P01116 1-169 isoform P01116-2 G12R): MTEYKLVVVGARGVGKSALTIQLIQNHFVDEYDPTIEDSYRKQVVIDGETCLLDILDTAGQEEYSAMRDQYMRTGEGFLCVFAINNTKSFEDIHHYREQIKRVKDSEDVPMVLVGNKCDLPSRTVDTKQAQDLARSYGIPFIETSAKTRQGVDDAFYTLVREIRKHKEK
A further experiment has as its target KRas G12C (Homo sapiens, UniProt P01116, G12C). As to the kind of experiment: biochemical.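 Note: binding to KRas assessed by TR-FRET displacement after one hour incubation at room temperature, potency fitted from percent-of-control values.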
A further experiment concerns the target T2, KRas Q61H (Homo sapiens, UniProt P01116, Q61H).
T2 construct: Biotinylated KRas (corresponding to amino acids 1-169, produced at Accelegan Inc.); biotin (biotinylated); purchased Accelegan Inc
As to the kind of experiment: KRas binding assay (TR-FRET displacement).

The target of a further experiment is KRas G12S (Homo sapiens, UniProt P01116, G12S). As to the kind of experiment: biochemical.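 Note: TR-FRET displacement binding to KRas, read after one hour incubation at room temperature, IC50 from four-parameter fit of percent of control.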
KRas G12S, sequence (P01116 1-169 isoform P01116-2 G12S): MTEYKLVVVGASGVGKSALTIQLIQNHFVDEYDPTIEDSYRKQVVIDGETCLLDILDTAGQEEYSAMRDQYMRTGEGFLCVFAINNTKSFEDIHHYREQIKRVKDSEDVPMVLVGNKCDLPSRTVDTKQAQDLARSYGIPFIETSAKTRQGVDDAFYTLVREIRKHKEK
In another experiment the target is KRas WT (Homo sapiens, UniProt P01116). As to the kind of experiment: biochemical.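 Note: binding to KRas read as TR-FRET displacement after a one-hour room-temperature incubation, IC50 derived from percent-of-control values.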
KRas WT, sequence (P01116 1-169 isoform P01116-2): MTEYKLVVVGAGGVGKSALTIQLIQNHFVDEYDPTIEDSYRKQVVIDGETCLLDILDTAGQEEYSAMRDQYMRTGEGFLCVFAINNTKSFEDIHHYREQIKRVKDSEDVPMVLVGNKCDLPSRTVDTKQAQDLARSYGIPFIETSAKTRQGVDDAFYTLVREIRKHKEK

KRas G12C, sequence (P01116 1-169 isoform P01116-2 G12C): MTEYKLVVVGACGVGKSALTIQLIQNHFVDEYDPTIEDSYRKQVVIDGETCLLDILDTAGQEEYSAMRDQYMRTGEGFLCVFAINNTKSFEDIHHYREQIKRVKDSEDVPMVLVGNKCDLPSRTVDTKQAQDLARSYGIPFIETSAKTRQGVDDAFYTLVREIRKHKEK
T2 sequence (P01116 1-169 isoform P01116-2 Q61H): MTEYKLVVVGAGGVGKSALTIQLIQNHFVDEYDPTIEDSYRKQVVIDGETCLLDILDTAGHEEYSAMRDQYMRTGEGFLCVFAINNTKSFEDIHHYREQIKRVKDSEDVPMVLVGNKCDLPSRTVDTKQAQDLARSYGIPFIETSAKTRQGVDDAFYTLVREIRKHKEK
KRas G12D, sequence (P01116 1-169 isoform P01116-2 G12D): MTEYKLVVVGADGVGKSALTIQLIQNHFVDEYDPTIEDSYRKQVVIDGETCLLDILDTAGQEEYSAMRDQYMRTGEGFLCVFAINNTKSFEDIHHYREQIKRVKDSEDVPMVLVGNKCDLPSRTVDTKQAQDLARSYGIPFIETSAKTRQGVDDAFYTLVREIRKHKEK
T1 sequence (P01116 1-169 isoform P01116-2 G13D): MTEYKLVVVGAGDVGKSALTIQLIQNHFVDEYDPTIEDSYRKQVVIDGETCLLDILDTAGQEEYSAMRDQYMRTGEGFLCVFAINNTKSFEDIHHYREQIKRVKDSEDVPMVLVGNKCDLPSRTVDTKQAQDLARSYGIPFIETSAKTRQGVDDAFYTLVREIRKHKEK

Regarding `OC1CCC12CCCN(c1nc(OCC34CCCN3CCC4)nc3c(F)c(-c4cccc5cccc(F)c45)ncc13)C2` (stereo not drawn) [Example 233, 6-(8-fluoro-7-(8-fluoronaphthalen-1-yl)-2-((tetrahydro-1H-pyrrolizin-7a(5H)-yl)methoxy)pyrido[4,3-d]pyrimidin-4-yl)-6-azaspiro[3.5]nonan-1-ol], the concentration for half-maximal inhibition (IC50) stood at 7380 nM on KRas G13D; 6.7 µM on KRas G12D; 4.64 µM against KRas G12V; 2.65 µM against KRas G12A; 5.56 µM against KRas G12R; 6.15 µM against KRas G12C. In addition, the IC50 on KRas Q61H was determined as 5350 nM; against KRas G12S, 7.45 µM; on KRas WT, 4.3 µM.

`O=C1NCC12CCCN(c1nc(OCC34CCCN3CCC4)nc3c(F)c(-c4cccc5cccc(F)c45)ncc13)C2` (stereo not drawn) [Example 98, 6-(8-fluoro-7-(8-fluoronaphthalen-1-yl)-2-((tetrahydro-1H-pyrrolizin-7a(5H)-yl)methoxy)pyrido[4,3-d]pyrimidin-4-yl)-2,6-diazaspiro[3.5]nonan-1-one]: the IC50 is 3210 nM at KRas G13D; 1.89 µM against KRas G12D; 3.01 µM on KRas G12V; 2.91 µM against KRas G12A; 6.42 µM at KRas G12R; 2.84 µM on KRas G12C. Also, the IC50 at KRas Q61H was determined as 4770 nM; on KRas G12S, 4.01 µM; at KRas WT, 3.36 µM.

As for `OCC1CN(c2nc(OCC34CCCN3CCC4)nc3c(F)c(-c4cccc5cccc(F)c45)ncc23)CCC1O` (stereo not drawn) [Example 117, 1-(8-fluoro-7-(8-fluoronaphthalen-1-yl)-2-((tetrahydro-1H-pyrrolizin-7a(5H)-yl)methoxy)pyrido[4,3-d]pyrimidin-4-yl)-3-(hydroxymethyl)piperidin-4-ol], the IC50 on KRas G13D came out at 5680 nM; on KRas G12D, 32 µM; against KRas G12V, 11.1 µM; at KRas G12A, 9.15 µM; at KRas G12R, 10.1 µM; against KRas G12C it was 6.57 µM. Moreover, the values for the IC50 at KRas Q61H, on KRas G12S and against KRas WT were 8240 nM, 11 µM and 9.86 µM, respectively.

Take `Fc1c(-c2cccc3cccc(F)c23)ncc2c(N3CC=CCC3)nc(OCC34CCCN3CCC4)nc12` [Example 123, 4-(3,6-dihydropyridin-1 (2H)-yl)-8-fluoro-7-(8-fluoronaphthalen-1-yl)-2-((tetrahydro-1H-pyrrolizin-7a(5H)-yl)methoxy)pyrido[4,3-d]pyrimidine]: the IC50 at KRas G13D was found to be 3480 nM; against KRas G12D, 4.44 µM; at KRas G12V, 3.19 µM; against KRas G12A, 3.18 µM; against KRas G12R, 7.5 µM; at KRas G12C it was 2.34 µM. Besides, the IC50 on KRas Q61H worked out at 4980 nM; on KRas G12S it was 2.76 µM; on KRas WT it was 3.5 µM.

For the compound `O=S1(=O)CC[C@H](CNc2nc(OCC34CCCN3CCC4)nc3c(F)c(-c4cccc5cccc(F)c45)ncc23)N1` [Example 128, (R)-3-(((8-fluoro-7-(8-fluoronaphthalen-1-yl)-2-((tetrahydro-1H-pyrrolizin-7a(5H)-yl)methoxy)pyrido[4,3-d]pyrimidin-4-yl)amino)methyl)isothiazolidine 1,1-dioxide], the IC50 is 13400 nM on KRas G13D; 49 µM at KRas G12D; 8.79 µM against KRas G12V; 11.5 µM on KRas G12A; 4.14 µM against KRas G12R; 9.57 µM against KRas G12C. The IC50 came to 18400 nM at KRas Q61H, 7.8 µM on KRas G12S and 12.8 µM against KRas WT.

For `Fc1c(-c2cccc3cccc(F)c23)ncc2c(N3CCCCC3)nc(OCC34CCCN3CCC4)nc12` [Example 21, 8-fluoro-7-(8-fluoronaphthalen-1-yl)-2-((hexahydro-1H-pyrrolizin-7a-yl)methoxy)-4-(piperidin-1-yl)pyrido[4,3-d]pyrimidine], the IC50 came out at 12600 nM on KRas G13D; 14.8 µM on KRas G12D; 9.73 µM against KRas G12V; 12.6 µM on KRas G12A; 10.7 µM against KRas G12R; 12.7 µM against KRas G12C. For the same compound, the results for the IC50 at KRas Q61H, at KRas G12S and on KRas WT were 19400 nM, 18.8 µM and 11.4 µM, respectively.

On to `O=c1[nH][nH]cc1CNc1nc(OCC23CCCN2CCC3)nc2c(F)c(-c3cccc4cccc(F)c34)ncc12` [Example 230, 4-(((8-fluoro-7-(8-fluoronaphthalen-1-yl)-2-((hexahydro-1H-pyrrolizin-7a-yl)methoxy)pyrido[4,3-d]pyrimidin-4-yl)amino)methyl)-1H-pyrazol-3(2H)-one], for which the IC50 on KRas G13D stood at 35500 nM; on KRas G12D, 38.8 µM; at KRas G12V, 7.99 µM; at KRas G12A, 11.3 µM; against KRas G12R it was 9.85 µM; against KRas G12C, 10.6 µM. In addition, the IC50 at KRas Q61H came to 23300 nM; against KRas G12S, 19.7 µM; against KRas WT, 28.4 µM.

For the compound `Fc1c(-c2cccc3cccc(F)c23)ncc2c(N3CC(c4ccncc4)C3)nc(OCC34CCCN3CCC4)nc12` [Example 213, 8-fluoro-7-(8-fluoronaphthalen-1-yl)-4-(3-(pyridin-4-yl)azetidin-1-yl)-2-((tetrahydro-1H-pyrrolizin-7a(5H)-yl)methoxy)pyrido[4,3-d]pyrimidine], the IC50 was 20500 nM on KRas G13D; at least 100 µM on KRas G12D; 5.57 µM at KRas G12V; 6.19 µM on KRas G12A; 4.25 µM against KRas G12R; 4.2 µM against KRas G12C. For the same compound, the figures for the IC50 at KRas Q61H, on KRas G12S and at KRas WT were 17700 nM, 7.25 µM and 16.8 µM, respectively.

With `Fc1c(-c2cccc3cccc(F)c23)ncc2c(N3CC(n4cncn4)C3)nc(OCC34CCCN3CCC4)nc12` [Example 253, 4-(3-(1H-1,2,4-triazol-1-yl)azetidin-1-yl)-8-fluoro-7-(8-fluoronaphthalen-1-yl)-2-((hexahydro-1H-pyrrolizin-7a-yl)methoxy)pyrido[4,3-d]pyrimidine], the IC50 on KRas G13D worked out at 14100 nM; against KRas G12D, 67.3 µM; against KRas G12V, 4.35 µM; against KRas G12A it was 3.03 µM; on KRas G12R, 4.08 µM; at KRas G12C it was 2.41 µM. Further, the IC50 was 7720 nM on KRas Q61H, 3.59 µM against KRas G12S and 6 µM at KRas WT.

Turning to `O=C1CC2(CCN(c3nc(OCC45CCCN4CCC5)nc4c(F)c(-c5cccc6cccc(F)c56)ncc34)CC2)N1` [Example 77, 7-(8-fluoro-7-(8-fluoronaphthalen-1-yl)-2-((hexahydro-1H-pyrrolizin-7a-yl)methoxy)pyrido[4,3-d]pyrimidin-4-yl)-1,7-diazaspiro[3.5]nonan-2-one], the IC50 was determined as 1210 nM at KRas G13D; 12.8 µM against KRas G12D; 1.35 µM against KRas G12V; 1.06 µM against KRas G12A; 2.21 µM at KRas G12R; 1.64 µM on KRas G12C. Moreover, the values for the IC50 on KRas Q61H, on KRas G12S and at KRas WT were 1910 nM, 1.17 µM and 1.41 µM, respectively.

`O=C1CC(CNc2nc(OCC34CCCN3CCC4)nc3c(F)c(-c4cccc5cccc(Cl)c45)ncc23)CN1` (stereo not drawn) [Example 102, 4-(((7-(8-chloronaphthalen-1-yl)-8-fluoro-2-((tetrahydro-1H-pyrrolizin-7a(5H)-yl)methoxy)pyrido[4,3-d]pyrimidin-4-yl)amino)methyl)pyrrolidin-2-one]: the IC50 is 769 nM on KRas G13D; 2.29 µM against KRas G12D; 0.365 µM on KRas G12V; 0.634 µM against KRas G12A; 0.479 µM at KRas G12R; 0.399 µM against KRas G12C. The IC50 at KRas Q61H stood at 1180 nM; on KRas G12S it was 0.191 µM; against KRas WT, 1.17 µM.

With `Fc1c(-c2cccc3cccc(F)c23)ncc2c(N3CCCC(c4cc[nH]n4)C3)nc(OCC34CCCN3CCC4)nc12` (stereo not drawn) [Example 131, 4-(3-(1H-pyrazol-3-yl)piperidin-1-yl)-8-fluoro-7-(8-fluoronaphthalen-1-yl)-2-((tetrahydro-1H-pyrrolizin-7a(5H)-yl)methoxy)pyrido[4,3-d]pyrimidine], the IC50 stood at 6560 nM on KRas G13D; 14.6 µM on KRas G12D; 8.3 µM at KRas G12V; 4.46 µM on KRas G12A; 2.79 µM on KRas G12R; 3.45 µM against KRas G12C. The IC50 at KRas Q61H came out at 7690 nM; on KRas G12S, 9.29 µM; at KRas WT, 8.21 µM.

Regarding `Fc1c(-c2cccc3cccc(F)c23)ncc2c(NCc3cnn4c3OCCC4)nc(OCC34CCCN3CCC4)nc12` [Example 222, N-((6,7-dihydro-5H-pyrazolo[5,1-b][1,3]oxazin-3-yl)methyl)-8-fluoro-7-(8-fluoronaphthalen-1-yl)-2-((tetrahydro-1H-pyrrolizin-7a(5H)-yl)methoxy)pyrido[4,3-d]pyrimidin-4-amine], the IC50 is 70100 nM on KRas G13D; at least 100 µM against KRas G12D; 18.2 µM against KRas G12V; 17.8 µM against KRas G12A; 31.2 µM against KRas G12R; 8.98 µM at KRas G12C. For the same compound, the figures for the IC50 at KRas Q61H, on KRas G12S and at KRas WT were 52900 nM, 26.9 µM and 35.9 µM, respectively.

Broadly, the IC50 is the concentration needed to halve the response being measured. Higher therefore signals weaker potency in that assay.
